For the assay, the target named is ROCK2 (Homo sapiens (Human), UniProt O75116). Kind of assay: ROCK2 kinase IC50 assay (CISBIO HTRF KinEASE-STK S2 kit). The assay is classed as biochemical. Particulars: ROCK2 from Carna Biosciences, 2 h incubation at room temperature. As to the method: The kinase IC50 was determined by a commercialized CISBIO kinase detection kit, HTRF KinEASE-STK S2 kit (62ST2PEC). ROCK2 (01-119) employed in the reaction was purchased from Carna Biosciences.
Before the assay, the following working solutions as needed were formulated with corresponding reagents according to the instruction of the kinase detection kit: 1×kinase buffer, 5×STK-52 substrate working solution (1.5 μM) and 5×ATP working solution (1.5 μM), 5×ROCK2 kinase working solution, 4×Streptavidin-XL665 working solution, and 4×STK-Ab-Cryptate 2 detection solution. Then the assay was performed according to the following procedure.
A solution of a compound at a concentration of 10000 nM was prepared with the 1×kinase buffer containing 2.5% DMSO. Gradient dilution of the solution of the compound was performed with the kinase buffer containing DMSO, so as to obtain solutions of a test compound at 9 different concentrations. In addition to wells of test compounds, a positive well (containing all the reagents except the compound) and a negative well (containing all the reagents except the test compound and kinase) were set. Except for the control wells (positive and negative wells), a solution of a test compound (4 μL) was added to each of the reaction wells, and a solution of 2.5% DMSO was added to the control wells. Then the substrate (2 μM, i.e., 2 μL 5×STK-S2 substrate working solution) was added to each of the reaction wells. The 5×ROCK2 kinase working solution (2 μL, containing 1.4 ng ROCK2 kinase) was added to each of the reaction wells except for the negative well, the volume of which was made up with the 1×kinase buffer (2 μL). The 5×ATP working solution (2 μL) was added to each of the reaction wells, and the mixtures were incubated at room temperature for 2 hours. After the kinase reaction was complete, the 4×Streptavidin-XL665 working solution was added to each of the reaction wells, the solutions were mixed, followed by immediate addition of the 4×STK-Ab-Cryptate 2 detection solution (5 μL), and the mixtures were incubated at room temperature for 1 hour. The fluorescence signal was read on ENVISION (Perkinelmer) (excitation wavelength: 320 nm, and emission wavelength: 665 nm and 615 nm). The inhibitory rate in each well was calculated based on the fluorescence intensity value: ER (Emission Ratio)=(fluorescence intensity at 665 nm/fluorescence intensity at 615 nm); inhibitory rate=(ERpositive−ERtest compound) (ERpositive−ERnegative)*100%. Curves were plotted and fitted to obtain the median inhibitory concentration (IC50) of each teat compound with the PRISM 5.0 software.

Usually IC50 stands for the concentration at which inhibition is half-maximal. A low value points to inhibition by little substance.

Chain of ROCK2 (O75116 1-553): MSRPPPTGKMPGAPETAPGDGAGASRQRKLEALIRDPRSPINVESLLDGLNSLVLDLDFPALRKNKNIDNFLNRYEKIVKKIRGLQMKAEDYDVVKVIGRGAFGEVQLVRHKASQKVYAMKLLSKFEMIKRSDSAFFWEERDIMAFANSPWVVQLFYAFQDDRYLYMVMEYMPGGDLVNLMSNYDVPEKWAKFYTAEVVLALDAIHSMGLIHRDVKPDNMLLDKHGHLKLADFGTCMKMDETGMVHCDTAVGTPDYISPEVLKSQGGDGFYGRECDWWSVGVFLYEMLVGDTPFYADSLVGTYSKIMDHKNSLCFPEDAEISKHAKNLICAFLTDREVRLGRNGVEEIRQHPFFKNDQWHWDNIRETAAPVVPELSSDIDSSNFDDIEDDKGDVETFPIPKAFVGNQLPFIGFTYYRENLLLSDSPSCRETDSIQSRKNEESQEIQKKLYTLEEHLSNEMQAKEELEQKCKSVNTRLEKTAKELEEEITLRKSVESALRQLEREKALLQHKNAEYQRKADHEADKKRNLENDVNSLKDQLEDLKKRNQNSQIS

With `O=C(c1cc2ccc(-c3nccc(Nc4ccc(-c5cn[nH]c5)cc4)n3)cc2[nH]1)N1CCOCC1` [TDI01331, (6-(4-((4-(1H-pyrazol-4-yl)phenyl)amino)pyrimidin-2-yl)-1H-indol-2-yl)(morpholino)methanone], the IC50 was found to be 260 nM.
With `CCN(CC)C(=O)c1cc2ccc(-c3nccc(Nc4ccc(-c5cn[nH]c5)cc4)n3)cc2[nH]1` [TDI01332, 6-(4-((4-(1H-pyrazol-4-yl)phenyl)amino)pyrimidin-2-yl)-N,N-diethyl-1H-indole-2-carboxamide] the figure was 257 nM; with `O=C(NC1CCOC1)c1cc2ccc(-c3nccc(Nc4ccc(-c5cn[nH]c5)cc4)n3)cc2[nH]1` (centres unmarked) [TDI01337, 6-(4-((4-(1H-pyrazol-4-yl)phenyl)amino)pyrimidin-2-yl)-N-(tetrahydrofuran-3-yl)-1H-indole-2-carboxamide], 121 nM; with `O=C(NC1CCOCC1)c1cc2ccc(-c3nccc(Nc4ccc(-c5cn[nH]c5)cc4)n3)cc2[nH]1` [TDI01338, 6-(4-((4-(1H-pyrazol-4-yl)phenyl)amino)pyrimidin-2-yl)-N-(tetrahydro-2H-pyran-4-yl)-1H-indole-2-carboxamide], 115 nM.
With `CN1CCC(NC(=O)c2cc3ccc(-c4nccc(Nc5ccc(-c6cn[nH]c6)cc5)n4)cc3[nH]2)C1` (centres unmarked) [TDI01339, 6-(4-((4-(1H-pyrazol-4-yl)phenyl)amino)pyrimidin-2-yl)-N-(1-methylpyrrolidin-3-yl)-1H-indole-2-carboxamide] the figure was 147 nM.
With `CN1CCN(C(=O)c2cc3ccc(-c4nccc(Nc5ccc(-c6cn[nH]c6)cc5)n4)cc3[nH]2)CC1` [TDI01343, (6-(4-((4-(1H-pyrazol-4-yl)phenyl)amino)pyrimidin-2-yl)-1H-indol-2-yl)(4-methylpiperazin-1-yl)methanone] the figure was 436 nM; with `CN(C(=O)c1cc2ccc(-c3nccc(Nc4ccc(-c5cn[nH]c5)cc4)n3)cc2[nH]1)C1COC1` [TDI01344, 6-(4-((4-(1H-pyrazol-4-yl)phenyl)amino)pyrimidin-2-yl)-N-methyl-N-(oxetan-3-yl)-1H-indole-2-carboxamide], 97 nM; with `CN(C(=O)c1cc2ccc(-c3nccc(Nc4ccc(-c5cn[nH]c5)cc4)n3)cc2[nH]1)C(CO)CO` [TDI01344-2A, 6-(4-((4-(1H-pyrazol-4-yl)phenyl)amino)pyrimidin-2-yl)-N-(1,3-dihydroxypropan-2-yl)-N-methyl-1H-indole-2-carboxamide], 107 nM.
On to `CN(C(=O)c1cc2ccc(-c3nccc(Nc4ccc(-c5cn[nH]c5)cc4)n3)cc2[nH]1)C1CCNC1` (centres unmarked) [TDI01345, 6-(4-((4-(1H-pyrazol-4-yl)phenyl)amino)pyrimidin-2-yl)-N-methyl-N-(pyrrolidin-3-yl)-1H-indole-2-carboxamide], for which half-maximal inhibition (IC50) was put at 333 nM.
In the case of `O=C(Nc1ccncc1Cl)c1cc2ccc(-c3nccc(Nc4ccc(-c5cn[nH]c5)cc4)n3)cc2[nH]1` [TDI01354, 6-(4-((4-(1H-pyrazol-4-yl)phenyl)amino)pyrimidin-2-yl)-N-(3-chloropyridin-4-yl)-1H-indole-2-carboxamide] it was 254 nM.
With `CN(CC(F)(F)F)C(=O)c1cc2ccc(-c3nccc(Nc4ccc(-c5cn[nH]c5)cc4)n3)cc2[nH]1` [TDI01355, 6-(4-((4-(1H-pyrazol-4-yl)phenyl)amino)pyrimidin-2-yl)-N-methyl-N-(2,2,2-trifluoroethyl)-1H-indole-2-carboxamide] the figure was 54 nM.
With `O=C(Nc1ccncc1)c1cc2ccc(-c3nccc(Nc4ccc(-c5cn[nH]c5)cc4)n3)cc2[nH]1` [TDI01363, 6-(4-((4-(1H-pyrazol-4-yl)phenyl)amino)pyrimidin-2-yl)-N-(pyridin-4-yl)-1H-indole-2-carboxamide] the figure was 104 nM; with `CN(C)C(=O)N1Cc2ccc(-c3nccc(Nc4ccc(-c5cn[nH]c5)cc4)n3)cc2C1` [TDI01366, 5-(4-((4-(1H-pyrazol-4-yl)phenyl)amino)pyrimidin-2-yl)-N,N-dimethylisoindoline-2-carboxamide], 260 nM.
`CC(C)NC(=O)c1cc2ccc(-c3nc(Nc4ccc(-c5cn[nH]c5)cc4)c4sccc4n3)cc2[nH]1` [TDI01370, 6-(4-((4-(1H-pyrazol-4-yl)phenyl)amino)thieno[3,2-d]pyrimidin-2-yl)-N-isopropyl-1H-indole-2-carboxamide] yielded an IC50 of 109 nM.
In the case of `CNC(=O)c1cc2ccc(-c3nc(Nc4ccc(-c5cn[nH]c5)cc4)c4sccc4n3)cc2[nH]1` [TDI01379, 6-(4-((4-(1H-pyrazol-4-yl)phenyl)amino)thieno[3,2-d]pyrimidin-2-yl)-N-methyl-1H-indole-2-carboxamide] it was 411 nM; in that of `CN(C(=O)c1cc2ccc(-c3nccc(Nc4ccc(-c5cn[nH]c5)cc4)n3)cc2[nH]1)C1CCOCC1` [TDI01381], 341 nM; in that of `O=C(Nc1ccncc1)c1cc2ccc(-c3nccc(Nc4ccc(-c5cn[nH]c5)cc4)n3)cc2s1` [TDI01393], 258 nM.
With `O=C(Nc1cccnc1)c1cc2ccc(-c3nccc(Nc4ccc(-c5cn[nH]c5)cc4)n3)cc2[nH]1` [TDI01397, 6-(4-((4-(1H-pyrazol-4-yl)phenyl)amino)pyrimidin-2-yl)-N-(pyridin-3-yl)-1H-indole-2-carboxamide] the figure was 120 nM; with `N#CC1CN(C(=O)c2cc3ccc(-c4nccc(Nc5ccc(-c6cn[nH]c6)cc5)n4)cc3[nH]2)C1` [TDI01398, 1-(6-(4-((4-(1H-pyrazol-4-yl)phenyl)amino)pyrimidin-2-yl)-1H-indole-2-carbonyl)azetidine-3-carbonitrile], 16 nM; with `CCNC(=O)c1cc2cc(-c3nccc(Nc4ccc(-c5cn[nH]c5)cc4)n3)ccc2[nH]1` [TDI01408], 400 nM.
Regarding `CCNC(=O)N1Cc2ccc(-c3nccc(Nc4ccc(-c5cn[nH]c5)cc4)n3)cc2C1` [TDI01411, 5-(4-((4-(1H-pyrazol-4-yl)phenyl)amino)pyrimidin-2-yl)-N-ethylisoindoline-2-carboxamide], the midpoint of inhibition, the IC50, lay at 258 nM.
With `CCN(CCO)C(=O)c1cc2ccc(-c3nccc(Nc4ccc(-c5cn[nH]c5)cc4)n3)cc2[nH]1` [TDI01415, 6-(4-((4-(1H-pyrazol-4-yl)phenyl)amino)pyrimidin-2-yl)-N-ethyl-N-(2-hydroxyethyl)-1H-indole-2-carboxamide] the figure was 262 nM; with `CN(C(=O)c1cc2ccc(-c3nccc(Nc4ccc(-c5cn[nH]c5)cc4)n3)cc2[nH]1)C1CC(O)C1` (centres unmarked) [TDI01418], 272 nM.
In the case of `CN(C(=O)c1cc2ccc(-c3nccc(Nc4ccc(-c5cn[nH]c5)cc4)n3)cc2[nH]1)C1CCC1` [TDI01420] it was 477 nM; in that of `CN(C(=O)c1cc2ccc(-c3nccc(Nc4ccc(-c5cn[nH]c5)cc4)n3)cc2[nH]1)c1ccncc1` [TDI01421, 6-(4-((4-(1H-pyrazol-4-yl)phenyl)amino)pyrimidin-2-yl)-N-methyl-N-(pyridin-4-yl)-1H-indole-2-carboxamide], 289 nM.
In turn, `O=C(NC1CCOC1)c1cc2ccc(-c3nc(Nc4ccc(-c5cn[nH]c5)cc4)c4sccc4n3)cc2[nH]1` (centres unmarked) [TDI01423, 6-(4-((4-(1H-pyrazol-4-yl)phenyl)amino)thieno[3,2-d]pyrimidin-2-yl)-N-(tetrahydrofuran-3-yl)-1H-indole-2-carboxamide] returned an IC50 of 264 nM.
With `O=C(NC1CCC1)c1cc2ccc(-c3nc(Nc4ccc(-c5cn[nH]c5)cc4)c4sccc4n3)cc2[nH]1` [TDI01424, 6-(4-((4-(1H-pyrazol-4-yl)phenyl)amino)thieno[3,2-d]pyrimidin-2-yl)-N-cyclobutyl-1H-indole-2-carboxamide], the IC50 is 138 nM.
For `O=C(c1cc2ccc(-c3nccc(Nc4ccc(-c5cn[nH]c5)cc4)n3)cc2[nH]1)N1CCC2(CCNCC2)CC1` [TDI01425, (6-(4-((4-(1H-pyrazol-4-yl)phenyl)amino)pyrimidin-2-yl)-1H-indol-2-yl)(3,9-diazaspiro[5.5]undecan-3-yl)methanone], 119 nM corresponded to half-maximal inhibition (IC50).
`CN(CC(F)(F)F)C(=O)c1cc2ccc(-c3ncc(F)c(Nc4ccc(-c5cn[nH]c5)cc4)n3)cc2[nH]1` [TDI01426] came in with an IC50 of 365 nM.
In the case of `CN(CC#N)C(=O)c1cc2ccc(-c3nccc(Nc4ccc(-c5cn[nH]c5)cc4)n3)cc2[nH]1` [TDI01430] it was 116 nM; in that of `O=C(c1cc2ccc(-c3nccc(Nc4ccc(-c5cn[nH]c5)cc4)n3)cc2[nH]1)N1CC(C(F)(F)F)C1` [TDI01433], 13 nM; in that of `O=C(c1cc2ccc(-c3nccc(Nc4ccc(-c5cn[nH]c5)cc4)n3)cc2[nH]1)N1CC(C(F)F)C1` [TDI01435], 28 nM.

Source of the values: patent publication US10329282B2, “Rho-associated protein kinase inhibitor, pharmaceutical composition comprising the same, as well as preparation method and use thereof” (Beijing Tide Pharmaceutical Co., Ltd., priority 2017, dated 2019).
